What was measured:
Steryl-sulfatase = biological target: T1, Steryl-sulfatase (Homo sapiens, UniProt P08842); test: In vitro inhibition of estrone sulfatase in placental microsomes; design: species or system Placenta
T1 sequence (P08842 whole entry): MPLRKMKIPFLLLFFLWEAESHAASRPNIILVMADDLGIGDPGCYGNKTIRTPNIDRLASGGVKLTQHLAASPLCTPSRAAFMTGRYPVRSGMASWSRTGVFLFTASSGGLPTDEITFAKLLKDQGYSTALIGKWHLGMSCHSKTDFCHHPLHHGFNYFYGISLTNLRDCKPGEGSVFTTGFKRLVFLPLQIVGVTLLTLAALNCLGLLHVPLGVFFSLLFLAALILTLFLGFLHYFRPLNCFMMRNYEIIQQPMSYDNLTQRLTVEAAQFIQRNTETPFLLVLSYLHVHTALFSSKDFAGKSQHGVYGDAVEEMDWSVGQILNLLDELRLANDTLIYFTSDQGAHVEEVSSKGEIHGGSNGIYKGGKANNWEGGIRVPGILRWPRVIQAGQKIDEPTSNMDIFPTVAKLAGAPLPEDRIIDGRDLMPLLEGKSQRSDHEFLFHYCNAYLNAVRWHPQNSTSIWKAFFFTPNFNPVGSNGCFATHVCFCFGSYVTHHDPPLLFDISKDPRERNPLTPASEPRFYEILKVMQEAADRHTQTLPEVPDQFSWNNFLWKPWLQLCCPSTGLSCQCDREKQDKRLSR

Rattus norvegicus = species: Rattus norvegicus; test: Effect on uterine weight gain in ovariectomized rat, expressed as uterine weight/total body weight X100 (0.036+/-0.001); format: functional
[1] = biological target: T2, Steryl-sulfatase (Rattus norvegicus) (UniProt P15589); test: In vivo inhibition of estrone sulfatase in rat liver after oral administration; format: organism-based; details: concentration not given here
T2 sequence (whole entry): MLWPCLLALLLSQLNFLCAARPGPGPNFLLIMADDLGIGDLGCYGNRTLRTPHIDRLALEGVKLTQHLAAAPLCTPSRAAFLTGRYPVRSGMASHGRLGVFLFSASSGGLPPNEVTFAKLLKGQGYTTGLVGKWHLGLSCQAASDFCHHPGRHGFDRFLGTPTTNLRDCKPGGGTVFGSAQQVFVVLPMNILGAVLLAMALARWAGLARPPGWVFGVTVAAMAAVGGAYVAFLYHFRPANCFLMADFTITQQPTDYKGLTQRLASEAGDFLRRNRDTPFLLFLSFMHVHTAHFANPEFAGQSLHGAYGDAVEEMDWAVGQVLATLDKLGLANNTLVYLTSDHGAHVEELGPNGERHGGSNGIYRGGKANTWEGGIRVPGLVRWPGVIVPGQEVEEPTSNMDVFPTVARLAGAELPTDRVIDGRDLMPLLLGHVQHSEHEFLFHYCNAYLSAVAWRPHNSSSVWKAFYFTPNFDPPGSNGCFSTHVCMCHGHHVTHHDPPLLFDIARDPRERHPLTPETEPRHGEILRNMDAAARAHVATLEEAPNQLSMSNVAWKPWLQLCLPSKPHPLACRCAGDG

[2] = biological target: T3, Steryl-sulfatase (Homo sapiens) (UniProt P08842); test: Inhibition of estrone sulfatase in MCF-7 breast cancer cells at 0.1 uM; format: cell-based; details: MCF7
T3 sequence (whole entry): T1 sequence (P08842 whole entry)

## C[C@]12CC[C@@H]3c4ccc(OS(N)(=O)=O)cc4CC[C@H]3[C@@H]1CCC2=O [EMATE]
Steryl-sulfatase
  IC50: 93 nM
Rattus norvegicus
  Average uterine weight: 0.11
[1]
  inhibition: 99%

## C[C@]12CC[C@@H]3c4ccc(OS(N)(=O)=O)cc4CC[C@H]3[C@@H]1CC/C2=N\O
[2]
  inhibition: 99%
Steryl-sulfatase
  IC50: 80 nM
Rattus norvegicus
  Average uterine weight: 0.15
[1]
  inhibition: 99%

Source: ChEMBL document CHEMBL1132331, “Synthesis and biological activity of the superestrogen (E)-17-oximino-3-O-sulfamoyl-1,3,5(10)-estratriene: x-ray crystal structure of (E)-17-oximino-3-hydroxy-1,3,5(10)-estratriene” (J Med Chem, 1999)
